A melting point compilation (Tetko et al.; mined from patent text by program, amines drawn as free bases though some values may be those of a salt)

Molecule O=C(Nc1ccc(Cc2ccc(O)c(O)c2)cc1)C1CSc2ccccc2C1=O (stereo not drawn) has a melting point of 216 to 218 °C. Molecule CC(=O)CC1NC(=O)c2sccc2-n2cccc21 (stereo not drawn) has a melting point of 268 °C. With Cc1nc2c(NC(=O)OCCc3ccc([N+](=O)[O-])cc3)nc(=O)n(C3CC(O)C(CO)O3)c2nc1C (stereo not drawn) the melting point was 154 to 155 °C. CCOCN1C(C)=C(C(=O)O)C(c2cccc([N+](=O)[O-])c2)C(C(=O)O)=C1C showed a melting point of 175 to 176 °C. Clc1ccc2nc(CN3CCN(c4ccccc4Cl)CC3)cn2c1 gave a melting point of 123 to 124 °C. In the case of CC(=O)OC(CN1C(=O)N(C(C)=O)C2(CC(C)(C)N(C)C(C)(C)C2)C1=O)CN1C(=O)N(C(C)=O)C2(CC(C)(C)N(C)C(C)(C)C2)C1=O, the melting point is reported as 105 to 108 °C. Work on O=c1c2c(CCc3ccncc3)n[nH]c2c2cccnc2n1-c1ccccc1 yielded a melting point of 267 to 269 °C. For CCCOc1cc(C(=O)NC2CC(C)(C)NC(C)(C)C2)ccc1-c1cc2cc(Cl)c(Cl)cc2[nH]1, the melting point was > 250 °C. In the case of Cc1oc(-c2ccccc2)nc1CCOc1ccc(CCCC2OC(=O)NC2=O)cn1 (stereo not drawn), the melting point is reported as 169 to 171 °C. COC(=O)c1c(C)oc(C)c1-c1ccc(F)cc1 gave a melting point of 34 to 35 °C. For CS(=O)c1cc2ccccc2[nH]1 (stereo not drawn), the melting point was 140 to 144 °C. With NNC(=O)Nc1ccc(-n2ncn(-c3ccc(OCC(F)(F)C(F)F)cc3)c2=O)cc1 the melting point was > 350 °C. N#Cc1ccc(Cc2nc3ccccc3[nH]2)cc1 gave a melting point of 133 to 136 °C. In the case of CCCCCS(=O)(=O)NC(=O)/C=C/c1cc(OCCCC)nn1Cc1ccc(Cl)cc1Cl, the melting point is reported as 95 to 98 °C. For COc1ccc(OC)c2c(Cl)c(C#N)cnc12, the melting point was 165 to 167 °C. Work on COc1cccc(NC(=O)c2ccccc2C(c2ccc(O)cc2)c2ccc(O)cc2)c1 yielded a melting point of 106 to 107 °C. For O=C(O)c1ccc(C#Cc2ccc(OCCCO)c(C34CC5CC(CC(C5)C3)C4)c2)cc1, the melting point was 290 to 292 °C. With CC1c2cc([Si](C)(C)C)ccc2-c2ccc([Si](C)(C)C)cc21 the melting point was 107 to 108 °C. In the case of O=C(NCC(=O)N1c2ccccc2N(Cc2ccccc2)C(=O)[C@H]2CCC[C@H]21)c1ccccc1 (relative stereo), the melting point is reported as 201 to 203 °C. Molecule Cc1cc([N+](=O)[O-])nc(C)c1C(N)=O has a melting point of 179 to 180 °C. With CCCc1nc(SC(F)F)c(C(=O)O)n1Cc1ccc(-c2ccccc2S(=O)(=O)NC(=O)NCCC2=CCCCC2)cc1 the melting point was 114 °C. For C=C(C)C(=O)OCCNC(=O)Oc1cccc(OC(=O)c2ccccc2)c1, the melting point was 57.5 to 61.5 °C. Nc1cc(Br)c(F)c(Cl)c1F gave a melting point of 86 to 88 °C. With CCCCN(Cc1ccc(-c2ccccc2-c2nnnn2C(c2ccccc2)(c2ccccc2)c2ccccc2)cc1)c1nc(C)ccc1C(=O)OCC the melting point was 120 to 122 °C. For Cc1cc2c3c(cc(C)c2[nH]c1=O)CC(CBr)O3 (stereo not drawn), the melting point was 277 to 278 °C. Oc1nnc(-c2ccc(CN3CCCCCC3)s2)o1 showed a melting point of 117 to 119 °C. For COc1cc2c(cc1OC)CC(C(=O)O)C2, the melting point was 133 to 135 °C. With CCOC(=O)Cc1c(-c2ccc(Cl)cc2)nn2cccnc12 the melting point was 221 to 225 °C. For OC(c1ccc(Cl)cc1)(c1ccc(Cl)cc1)c1nccn1COCc1ccccc1, the melting point was 139 to 141 °C. For NCc1ccc(-c2cnc(N3CCN(C4CC4)CC3)nc2)cc1, the melting point was 150 to 152 °C. CC(=O)N1CCc2ccc(C(=O)CCCC3CCN(Cc4ccccc4Cl)CC3)cc2CC1 showed a melting point of 99 to 100 °C. For O=c1cc(C(F)(F)F)c2c(O)cc(O)cc2o1, the melting point was 212 to 214 °C. Molecule C=CCOc1nc(SC)nc(NC(C)C)c1[N+](=O)[O-] has a melting point of 51 to 54 °C. With CCc1c(OC)cc(C2CN(C)CC/C2=C\C(=O)OC)cc1OC (stereo not drawn) the melting point was 110 to 112 °C. Work on COc1ccc(C=CC(=O)CN2CCOCC2)cc1 yielded a melting point of 78 °C. With CCOC(=O)c1cn(Cc2ccc(OCc3nc(-c4ccco4)oc3C)cc2)nc1OCc1ccc(OCc2nc(-c3ccco3)oc2C)cc1 the melting point was 133 to 134 °C. CCc1c(Oc2cc(C)cc(C)c2)n(COCc2ccccc2)c(=O)[nH]c1=O gave a melting point of 146 to 150 °C. With CC1Nc2ccc(S(=O)(=O)N3CCCCC3)cc2S(=O)(=O)N1 (stereo not drawn) the melting point was 255 to 256 °C. For COc1ccc(-c2ccc3c(n2)[nH]c2ccccc23)cc1, the melting point was > 220 °C. COCc1nc2c(N)nc3cc(CCS(C)(=O)=O)ccc3c2n1CC(C)(C)O gave a melting point of 210 to 212 °C. In the case of Cc1ccc(CO)nc1-c1ccccn1, the melting point is reported as 51 to 53 °C. CCCCCCCCCCCCCCCCCCCCSCCCO gave a melting point of 58 to 60 °C. With CCOC(=O)CCc1ccc(OCCCc2cn(-c3ccc(C(F)(F)F)cn3)nc2OCC)c(O)c1 the melting point was 92 to 93 °C. Molecule CCOC(=O)c1ccc(O)c(CC)c1 has a melting point of 73 to 74 °C. For O=C(NCCCCCn1cncn1)c1ccc(Cl)cc1, the melting point was 68 to 70 °C. Molecule CCOC(=O)C(C)(C)Cc1c(SC(C)(C)C)c2cc(O)ccc2n1Cc1ccc(Cl)cc1 has a melting point of 151 to 152 °C. For NCCc1ccc(-c2ccc(O)cc2)cc1, the melting point was > 350 °C. N#Cc1ccnc(C=Cc2ccccc2)n1 gave a melting point of 147 to 150 °C. Work on OCC1OC(n2c(Cl)nc3c(Br)c(Br)c(Br)cc32)C(O)C1O (stereo not drawn) yielded a melting point of 168 to 170 °C. COC(=O)C(CNC(=O)c1ccccc1)NC(=O)C(C)(C)NC(=O)C(SC(C)=O)C(C)C (stereo not drawn) showed a melting point of 48 to 54 °C. CS(=O)(=O)NCCCC1COCc2nc3c(N)nc4c(c3n21)CCCC4 (stereo not drawn) gave a melting point of 197 to 200 °C. COC(=O)C1CCc2onc(-c3ccc(Cl)cc3)c2CC1 (stereo not drawn) gave a melting point of 70 to 71 °C. O=C(NCc1ccncc1)c1cccc2c1OCCO2 showed a melting point of 120 to 121 °C. COc1ccc2c(c1)C(=NOCCN1CCCC1)c1c-2cnc2ccccc12 gave a melting point of 85 to 86 °C. N#Cc1ccc(NC(=O)NC(=O)c2ccccc2F)c(Cl)c1Cl gave a melting point of 298 to 300 °C. With c1ccc(CN2CC3(COc4cc5c(cc43)CCO5)c3c(-c4cncnc4)cccc32)nc1 (stereo not drawn) the melting point was > 200 °C. Work on CCOC1CCC(=O)N1S(=O)(=O)c1ccccc1 (stereo not drawn) yielded a melting point of 112 to 113 °C. CCOCc1nc2c(N)nc3cc(-c4cccnc4)ccc3c2n1CCNC(=O)NC(C)C gave a melting point of 194 to 196 °C. With C#CC1CCN(C(=O)c2ccccc2)CC1 the melting point was 101 to 103 °C. COc1cccc2c1CC(CC=O)C2=O (racemic) gave a melting point of 71 °C. For CCCCC(=N)NC(=O)Nc1cccc(Cl)c1, the melting point was 135 to 137 °C. For [N-]=[N+]=NCc1nc2ccccc2n1Cc1ccccc1, the melting point was 108 to 110 °C. With COc1ccc2c(c1)CC(C)C2=O (stereo not drawn) the melting point was 73 to 76 °C. In the case of COc1ccc(CN(C)C)cc1CO, the melting point is reported as 67 to 69 °C. For O=c1[nH]c2cc(Cl)cc(Cl)c2c(O)c1Sc1ccc(OCc2ccccc2)cc1, the melting point was 224 to 227 °C. CCC(O)(CC(N)=O)c1ccc(Br)cc1 (stereo not drawn) showed a melting point of 118 to 119 °C. In the case of N#Cc1c(O)ccc2oc(-c3ccc(O)cc3)cc12, the melting point is reported as > 230 °C. CN(C)CCN(C)CC(=O)N1c2ccccc2N(C)C(=O)c2cnc(-c3ccccc3)nc21 gave a melting point of 125 °C. In the case of CN1CCC(Nc2nc3ccccc3n2Cc2cnccn2)CC1, the melting point is reported as 169 °C. Molecule OCCNN=C(Cc1ccncc1)c1ccc(F)cc1 has a melting point of 122 to 123 °C. For Cn1ncnc1COc1nn2c(-c3cccs3)nncc2c1-c1ccccc1, the melting point was 209 °C. COc1cccc(OC)c1C(=O)P(CC(C)C)C(=O)c1c(OC)cccc1OC showed a melting point of 138 to 140 °C. C#Cc1ccc2c(c1)C(=O)N(C(C)(C)C)CC(=O)N2 gave a melting point of 216 to 219 °C. In the case of CCC(CC)Cn1c(=O)c(=O)[nH]c2cc([N+](=O)[O-])c(-n3cccc3C(=O)OC)cc21, the melting point is reported as 240 to 241 °C. Work on CCCCCOc1cc(C(=O)O)cc(N)c1-c1ccccc1 yielded a melting point of 134 to 135 °C. Molecule CC1(C)C(N)C(C)(C)S1(=O)=O has a melting point of 104 to 106 °C. For CC(C)(C)C(=O)Nc1cc2c(O)n(I)c(I)nc-2n1, the melting point was 233 °C. For N#CCC(=O)NCc1ccccc1Cl, the melting point was 102 to 104 °C. With CC1C(C/C=C/c2ccccc2)C(=O)N(Cc2ccccc2)c2ccccc2N1C(=O)CN1C(=O)c2ccccc2C1=O (stereo not drawn) the melting point was 262 to 264 °C. Molecule Cc1ccc2[nH]ncc2c1N has a melting point of 197 to 200 °C. CCCCc1ccccc1OCCCOc1cccc2c(=O)cc(C(=O)O)oc12 gave a melting point of 168 °C. For O=C(CBr)Nc1ccccc1C(=O)O, the melting point was 165 to 168 °C. C#CCOc1cc(Cl)nc(Nc2ccccc2)n1 showed a melting point of 92 to 93 °C. Work on COc1ccc2cc([C@H](C)C(=O)OCCS(=O)CCOC(=O)OC(C)O[N+](=O)[O-])ccc2c1 (stereo partly drawn) yielded a melting point of 112 to 115 °C. For CS(=O)(=O)Nc1cc2oc(C#N)c(NC=O)c(=O)c2cc1Oc1ccccc1, the melting point was 229 to 230 °C. For CCCCCCCCCCNC(=O)c1cccc(N)c1, the melting point was 56 to 58 °C. Molecule Cc1ccc(-n2c(-c3c4ccccc4cc4ccccc34)ccc2-c2c3ccccc3cc3ccccc23)cc1 has a melting point of 262 to 263 °C. Work on CCOc1ccc2c(c1O)CCN(C(C)=O)[C@@H]2c1cc(Cl)cc(Cl)c1 yielded a melting point of 238 to 241 °C. Molecule Cc1sc2ccc(Cl)cc2c1C1=NCCN1 has a melting point of 190 to 192 °C. COC1=C(OC)C(=O)OC1=O gave a melting point of 41 to 43 °C. With O=C(O)CCCCCOc1nc(-c2ccccc2)c2ccccc2n1 the melting point was 112 to 114 °C. Work on Clc1ccc(C=NN=c2ccn(-c3ccc(Cl)cc3)cc2)cc1 yielded a melting point of 165 to 166 °C. With CC(C)Oc1cc(-n2c(=O)c3c(n(C)c2=O)CCCC3)c(F)cc1Cl the melting point was 143 to 145 °C. CN1CCC(CNC(=O)c2ccc(-c3[nH]nc4c3C(=O)c3c(NC(=O)NN5CCOCC5)cccc3-4)s2)C1 (stereo not drawn) gave a melting point of 151 to 153 °C. Molecule CC(c1oc2ccccc2c(=O)c1-c1cccc(F)c1)n1nc(-c2cnc(N)nc2)c2c(N)ncnc21 (stereo not drawn) has a melting point of 264 to 268 °C. Work on C1COCCOCCOCCOCCO1 yielded a melting point of 70 to 71 °C. Molecule Fc1cc2[nH]c(S)nc2cc1N1CCCC1 has a melting point of 170 to 171 °C. Work on CCCN(Cc1ccccc1C(=O)O)c1ccc(CC(=O)O)cc1 yielded a melting point of 163 °C. With CCCn1cc2c(C3C(=O)Nc4ccc(Br)cc43)nc(NCCN3CCOCC3)nc2n1 (stereo not drawn) the melting point was 299 to 303 °C. CCCC1COC(Cn2nc[nH]c2=S)(c2ccc(Cl)cc2Cl)O1 (stereo not drawn) gave a melting point of 128 °C. Molecule CCCCOc1cccc(OCCBr)c1 has a melting point of 32 to 34 °C. CCCCCCCCCCCCSCCO showed a melting point of 31 to 32 °C. For Cc1ccc(S(=O)(=O)N2[C@@H](C(N)=O)CC[C@H]2c2ccccc2)cc1 (racemic), the melting point was 130 °C.
